Data as given in ChEMBL document CHEMBL3217509, “Discovery of an HIV integrase inhibitor with an excellent resistance profile” (Medchemcomm, 2013).

Legend:
[1] = system: Human immunodeficiency virus 1; test: Antiviral activity against HIV1 NL4-3 infected in human MT2 cells after 3 days by human JC53BL cell-based beta-galactosidase reporter gene assay; assay type: functional, organism-based; conditions: Human immunodeficiency virus 1, NL4-3, JC53BL, 72 h
[2] = Intrinsic clearance in human liver microsomes assessed per mg of protein by LC-MS/MS analysis in presence of UDPGA; assay type: ADME; conditions: read-out: CLH
[3] = Intrinsic clearance in human hepatocytes assessed assessed per million of cells by LC-MS/MS analysis; assay type: ADME, cell-based, Hepatocyte; conditions: read-out: CLH
[4] = Intrinsic clearance in human liver microsomes assessed per mg of protein by LC-MS/MS analysis; assay type: ADME; conditions: read-out: CLH
[5] = Aqueous solubility of the compound at pH 7.4; assay type: physicochemical; conditions: buffer
[6] = Inhibition of DNA polymerase alpha (unknown origin); design: species or system Homo sapiens
[7] = Inhibition of DNA polymerase beta (unknown origin); design: species or system Homo sapiens

SMILES | IC50 [1] [nM] | microsomal CLint [2] [µL/min/mg] | hepatocyte CLint [3] [µL/min/1e6 cells] | microsomal CLint [4] [µL/min/mg] | solubility [5] [µg/mL] | IC50 [6] [nM] | IC50 [7] [nM]
CC1(C)CN(O)C(=O)c2ncc3c(ccn3Cc3ccc(F)cc3)c21 | 1 | 170 | 64.7 |  |  |  | 
O=C1c2ncc3c(ccn3Cc3ccc(F)cc3OC(F)F)c2CCN1O | 5 | 5.8 | 17 | 15.4 |  |  | 
COc1cc(Cn2ccc3c4c(ncc32)C(=O)N(O)CC4)ccc1F | 19 | 18 | 34.3 | 12.5 |  |  | 
O=C(NCCO)c1c(O)c2ncc3c(ccn3Cc3ccc(F)cc3)c2[nH]c1=O | 1 | < 3.5 | 2.9 | 17.3 | < 1 |  | 
COCCNC(=O)c1c(O)c2ncc3c(ccn3Cc3ccc(F)cc3)c2[nH]c1=O | 6 | 3.5 | 5.9 | 32 | < 1 |  | 
C[C@@]1(CO)[C@H](O)CC[C@@]2(C)[C@H]1CC[C@H]1C[C@@H]3C[C@@]12CC[C@]3(O)CO [APHIDICOLIN] |  |  |  |  |  | 7170 | 1960
O=C1c2ncc3c(ccn3Cc3ccc(F)cc3)c2CCN1O |  | 24 | 29.6 | 19.2 |  |  | 
